Data reported in PMC2728345 (Toxicology and applied pharmacology, 2009).
Positions count from the first letter of the chain named. “Also recorded” adds a separate entry of the source. Where two headings read alike, the source gives them in different places.

Columns and labels:
carboxylesterase HCE1 = biological target: T1, carboxylesterase HCE1 (Homo sapiens, UniProt P23141); assay: Hydrolysis of pyrethroids by recombinant HCE1; assay type: in vitro ADME; conditions: recombinant HCE1 vs HCE2 lysates, Tris-HCl pH 7.4
T1 sequence (P23141 18-567): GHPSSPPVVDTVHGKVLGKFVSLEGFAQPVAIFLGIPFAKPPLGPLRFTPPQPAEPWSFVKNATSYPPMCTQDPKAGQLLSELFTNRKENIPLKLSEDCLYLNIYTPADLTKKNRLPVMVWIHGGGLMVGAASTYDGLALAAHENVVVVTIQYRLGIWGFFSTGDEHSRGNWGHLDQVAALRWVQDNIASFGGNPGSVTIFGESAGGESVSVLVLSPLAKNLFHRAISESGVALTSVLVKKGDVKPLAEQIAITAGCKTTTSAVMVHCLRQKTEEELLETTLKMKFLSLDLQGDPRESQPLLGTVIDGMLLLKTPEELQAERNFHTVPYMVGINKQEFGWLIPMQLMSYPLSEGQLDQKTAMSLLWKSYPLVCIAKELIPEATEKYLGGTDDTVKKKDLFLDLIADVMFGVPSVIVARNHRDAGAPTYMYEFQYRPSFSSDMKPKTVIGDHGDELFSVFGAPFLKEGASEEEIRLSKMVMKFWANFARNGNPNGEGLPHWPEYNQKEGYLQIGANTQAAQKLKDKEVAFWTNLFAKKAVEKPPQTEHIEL

HCE2 = HCE2 expression in human primary hepatocytes; assay type: cell-based; conditions: 10 µM, 24 h
human PXR variant L412I = biological target: T2, human PXR variant L412I (Homo sapiens, UniProt O75469, L412I); conditions: HepG2 cotransfection, 10 µM, 24 h
T2 sequence (O75469 1-434 L412I): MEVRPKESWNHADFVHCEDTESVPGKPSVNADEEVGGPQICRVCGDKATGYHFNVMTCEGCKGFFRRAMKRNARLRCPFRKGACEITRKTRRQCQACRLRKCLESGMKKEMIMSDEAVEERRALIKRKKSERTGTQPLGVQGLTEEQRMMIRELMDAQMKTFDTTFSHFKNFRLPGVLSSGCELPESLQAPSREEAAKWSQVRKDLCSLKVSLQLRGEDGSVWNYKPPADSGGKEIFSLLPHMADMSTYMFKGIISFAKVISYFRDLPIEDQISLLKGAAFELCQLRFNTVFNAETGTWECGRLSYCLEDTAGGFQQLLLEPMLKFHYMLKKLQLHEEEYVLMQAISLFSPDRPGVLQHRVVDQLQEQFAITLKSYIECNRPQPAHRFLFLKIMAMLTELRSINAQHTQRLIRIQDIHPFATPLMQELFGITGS

human PXR variant S208F [1] = biological target: T3, human PXR variant S208F (Homo sapiens, UniProt O75469, S208F); conditions: HepG2 cotransfection, 10 µM, 24 h; words: compared with wild-type PXR
T3 sequence (O75469 1-434 S208F): T2 sequence (O75469 1-434 L412I) with S208F, I412L

[2] = 50 µg protein, pyrethroid 200 µM mixed with equal volume, Tris-HCl pH 7.4, 37°C
rats or mice = conditions: in vivo, po; cited from earlier work
CYP3A4 = CYP3A4 expression in human primary hepatocytes; conditions: 10 µM, 24 h
human PXR [3] = biological target: T4, human PXR (Homo sapiens, UniProt O75469); assay: Activation of human PXR in hPXR-HRE cells transfected with HCE1, HCE2 or vector; conditions: 10 µM; for effect of carboxylesterase cotransfection on PXR activation: hPXR-HRE cells transfected with HCE1 or HCE2 vs vector; for decrease in PXR activation, HCE1 versus HCE2 cotransfection: hPXR-HRE cells
T4 sequence (O75469 1-434): T2 sequence (O75469 1-434 L412I) with I412L

human PXR [4] = biological target: T4, human PXR; assay: Activation of human PXR in stable line hPXR-HRE; conditions: 10 µM, 24 h, ratio over DMSO
human PXR variant S208F [5] = biological target: T3, human PXR variant S208F
carboxylesterase HCE2 [6] = biological target: T5, carboxylesterase HCE2 (Homo sapiens, UniProt O00748); assay: Hydrolysis of pyrethroids by recombinant HCE2; assay type: in vitro ADME; conditions: recombinant HCE2 vs HCE1 lysates, Tris-HCl pH 7.4
T5 sequence (O00748 27-559): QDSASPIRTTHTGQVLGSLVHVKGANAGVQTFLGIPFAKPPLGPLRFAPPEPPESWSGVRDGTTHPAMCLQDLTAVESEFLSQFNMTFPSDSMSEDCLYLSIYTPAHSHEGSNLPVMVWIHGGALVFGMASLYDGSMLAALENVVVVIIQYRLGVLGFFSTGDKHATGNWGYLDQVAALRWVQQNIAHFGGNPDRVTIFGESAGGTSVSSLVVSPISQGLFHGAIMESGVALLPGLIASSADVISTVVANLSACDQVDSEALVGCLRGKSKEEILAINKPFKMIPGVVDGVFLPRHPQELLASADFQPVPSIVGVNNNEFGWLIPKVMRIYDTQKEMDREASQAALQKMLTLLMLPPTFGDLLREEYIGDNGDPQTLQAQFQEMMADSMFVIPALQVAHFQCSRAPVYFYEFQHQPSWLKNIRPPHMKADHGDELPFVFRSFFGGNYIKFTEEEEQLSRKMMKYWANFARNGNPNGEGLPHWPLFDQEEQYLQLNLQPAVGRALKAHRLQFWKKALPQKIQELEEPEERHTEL

carboxylesterase HCE2 [7] = biological target: T5, carboxylesterase HCE2; conditions: Tris-HCl buffer pH 8.0; ref Nishi et al. (2006); cited from earlier work

| Compound | preference for hydrolysis by HCE1 over HCE2 (words) (carboxylesterase HCE1) | HCE2 protein (Western blotting) (HCE2) | activation of PXR variant L412I compared with wild-type PXR (human PXR variant L412I) | activation of PXR variant S208F (human PXR variant S208F [1]) | hydrolysis by pooled human liver microsomes (rate group / extent, in words) [2] | LD50 (rats or mice) [mg/kg] | CYP3A4 protein (Western blotting) (CYP3A4) | effect of carboxylesterase cotransfection on PXR activation (human PXR [3]) | decrease in PXR activation, HCE1 versus HCE2 cotransfection (human PXR [3]) | activation of human PXR (human PXR [4]) | activation of PXR variant S208F (human PXR variant S208F [5]) [fold] | preference for hydrolysis by HCE2 over HCE1 (carboxylesterase HCE2 [6]) | selective hydrolysis HCE2 vs HCE1 (literature) (carboxylesterase HCE2 [7]) |
| --- | --- | --- | --- | --- | --- | --- | --- | --- | --- | --- | --- | --- | --- |
| CC1(C)[C@H](C(=O)O[C@H](C#N)c2cccc(Oc3ccccc3)c2)[C@@H]1/C=C(\Cl)C(F)(F)F (racemic) [lambda-Cyhalothrin] | HCE1 preferably hydrolyzed; also recorded: much more active than HCE2 | but not HCE1 or HCE2 protein | less extent than the wild-type PXR | no differences | moderate rate | 56 | significant increase | markedly decreased | much more decreases | stronger activator of human PXR |  |  |  |
| CC1(C)C(C=C(Cl)Cl)C1C(=O)OC(C#N)c1ccc(F)c(Oc2ccccc2)c1 (stereo not shown) [Baythroid] |  |  |  |  | moderate rate |  |  |  |  |  | 10.6 | HCE2 preferably hydrolyzed |  |
| CC1(C)[C@H](C(=O)O[C@H](C#N)c2cccc(Oc3ccccc3)c2)[C@@H]1C=C(Br)Br [Deltamethrin] | much more active than HCE2; also recorded: preferably hydrolyzed by HCE1 |  |  |  | high rate | 535 |  | markedly decreased | much more decreases |  |  |  | better substrate of HCE2 |
